From patent publication US4690944A, “Homocysteine thiolactone derivatives, process for the preparation thereof and pharmaceutical compositions therefrom” (Chiesi Farmaceutici S.p.A., priority 1985, dated 1987) come the findings set out here.

The nature of data set [1]: Toxicity after single administration (acute toxicity, oral). To be noted: mouse, in vivo, mice, p.o., death-rate after 7 days, read-out: Acute toxicity LD50 approx. As for the experimental part: IVA:NMRI (SPF) mice, fasted for 18 hours before treatment with water ad libitum, have been used. The compounds, dissolved or suspended in a 0.2% Tween® 80 aqueous solution, have been administered orally, at constant concentration (10%). According to the death-rate observed after 7 days from treatment, the approximate LD50 values, reported in Table 1, have been interpolated on Probits chart.

The subject of another data set is respiratory tract. Nature of the data set: Mucosecretodynamic activity, "in vivo" fluorescein test. As to conditions: Mus musculus, po; male mice, p.o., 90 minutes before i.v. fluorescein; excretion increase versus controls. As for the experimental part:
The compounds, dissolved or suspended in 20 ml/kg of a 0.2% Tween® 80 aqueous suspension, were administered orally 90 minutes before the intravenous injection of 1% (5 ml/kg) fluorescein. Animals treated p.o. with the only vehicle were used as a control group. After 30 minutes from the fluorescein injection the animals were killed and subjected to incannulation of the trachea. Then the respiratory tract was washed and the spectrophotometric dosage of the fluorescein was carried out against phosphate buffer on the so collected eluate, suitably diluted with phosphate buffer and centrifugated.
The amount of fluorescein was determined by means of a calibration curve prepared in the same experimental conditions and the excretion expressed as ng/hour/10 g body weight. For each experimental session the percent increases of excretion versus controls were calculated.

The next data set relates to porcine gastric mucine. The data set is described as follows: "In vitro" mucolytic activity (viscoelasticity of porcine gastric mucine). The data set is classed as biochemical. To be noted: 0.2 ml of 10% DMSO solution of compound in 1.8 ml of 6% mucine, 25° C., 30 minutes, 0.075 Hz. As for the experimental part:
Control samples were similarly added with the vehicle only. After incubation at 25° C. for 30 minutes, the analysis of the rheologic characteristics was carried out by means of Contraves Low-Shear 30 sinus viscosimeter endowed with oscillating device for the study of the viscoelasticity. The dynamic measurements of the viscoelasticity were carried out at a single frequency (0.075 Hz), using an appropriate concentrical cylinder measurement system, particularly suited for bronchial mucus (Contraves MS-LS 1-1).
The rheogramm was recorded on X/Y Rikadenki 11T recorder and the […] determination was carried out by means of vectorial calculation.
The percent decreases versus control samples, reported in Table 1, were determined from the means of the values of said parameters (at least 7 replications per sample).

Bounds are passed on as bounds.

Usually LD50 stands for the dose at which mortality reaches 50%. A word on the ED50: it is the dose at which the effect has come halfway, by size or by number of responders. Read a low ED50 as an effect at a small dose.

In the case of `NC(CSCC(=O)O)C(=O)O` (centres unmarked) [S-carboxymethyl-cysteine, S--carboxymethyl-cysteine, reference compound], the LD50 at 168 h in data set [1] was over 4000 mg/kg. Also, in the data set with respiratory tract, it took a dose of 1900 mg/kg to reach the 50% effect level (ED50).

Take `O=C1SCCC1NC(=O)C1C2C=CC(C2)C1C(=O)O` (centres unmarked) [IV, 3-[[N-(Tetrahydro-2-oxo-3-thienyl)amino]-carbonyl]bicyclo[2,2,1]-ept-5-ene-2-carboxylic acid]: the LD50 at 168 h in data set [1] was over 4000 mg/kg. Also, in the data set on porcine gastric mucine, the “"in vitro" % decrease elasticity (G')” value was determined as 32% and the “"in vitro" % decrease viscosity (.eta.)” value was found to be 43%. Also, the 50% effective dose (ED50) in the data set on respiratory tract was 25 mg/kg.

Consider `CC(=O)N[C@@H](CS)C(=O)O` [N-acetyl-L-cysteine, N--acetyl-L-cysteine, reference compound], for which, in data set [1], the median lethal dose (LD50) at 168 h was 4400 mg/kg. In the data set on porcine gastric mucine, the “"in vitro" % decrease elasticity (G')” value is reported as 39% and the “"in vitro" % decrease viscosity (.eta.)” value was found to be 53%. In the data set on respiratory tract, this compound showed a 50% effective dose (ED50) of 1300 mg/kg.

In the case of `O=C(O)c1ccccc1C(=O)NC1CCSC1=O` (centres unmarked) [II, 2-[[N-(tetrahydro-2-oxo-3-thienyl)amino]carbonyl]benzoic acid], the median lethal dose (LD50) at 168 h in data set [1] was over 4000 mg/kg. Moreover, in the data set on porcine gastric mucine, the “"in vitro" % decrease elasticity (G')” value is 23% and the “"in vitro" % decrease viscosity (.eta.)” value is 45%. The same compound came in with an ED50 in the data set on respiratory tract of 340 mg/kg.
